Measurements reported in paper PMC8536644, “Enigmatic mechanism of the N-vinylpyrrolidone hepatocarcinogenicity in the rat” (Archives of Toxicology, 2021).
Where “and” joins values, the source holds several entries; their conditions need not be identical. Equal entries are not always repeated. Where two headings read alike, the source gives them in different places.

What was measured:
[1] = Trypan Blue viability of the single cell suspension, lung; type: in vivo, rat; conditions: Wistar, rat, lung, inhaled, lung, 5 days
[2] = tested on: Drosophila melanogaster; conditions: ref Knaap et al. [1985]; cited from earlier work
[3] = tested on: rat liver; assay: Liver histology, Oil Red O staining; type: in vivo; conditions: high dose group (20 ppm)
Procedure: ORO staining was performed essentially according to Lillie and Ashburn ([1943]), specifically under the following conditions:
Parts of the frozen (− 80 °C) livers from rats treated with 0, 5, 10 or 20 ppm NVP were soaked in tap water and then thoroughly frozen at − 40 °C. Subsequently they were cut at -10 to -15 °C into slices of 12–20 µm and stored in water until starting the staining procedure. The slices were then left for approximately 5 min in 60% isopropanol, subsequently stained for 10–12 min in ORO solution (5 g ORO dissolved in 1 L isopropanol, to this solution added 400 mL H2O, left at room temperature for 24 h and then filtered) and subsequently differentiated by immersing 2–3 times into 60% isopropanol. Afterwards they were left in water until they collected at the surface. Finally the slices were stained for 3 min in hematoxylin solution (1 g hematoxylin, 50 g KAl(SO4)2, 50 g chloral hydrate, 1 g citric acid/L H2O, then for maturation 0.2 g NaIO3/L). Subsequently they were left at least 10 min in water. Finally, the slices were transferred to microscope slides and covered with 40–60 °C warm Kaiser’s glycerol gelatin.

[4] = tested on: rat liver cells; assay: Comet assay, conventional (no FPG), liver; conditions: for Hedgehogs/100 cells (mean ± SD) / TI (%) (mean ± SD) / TI (%), mean of medians from 2 slides: liver, no FPG, 5 days; for TI (%), mean of medians from 2 slides: individual animals
Procedure: Animals were anesthetized by 3.5% isoflurane (approximately 3 min, evaporator Dräger Vapor 19.3) and then killed by cervical dislocation. The liver was removed and its left lateral lobe used for the Comet assay. The remainder of the liver was washed in saline and then in two aliquots shock frozen in liquid nitrogen and stored at − 80 °C for later examinations. Subsequently the lung was removed from the dead animal. Its left lobe was used for the Comet assay and the remainder treated as described above for the liver. Thereafter the femora were removed for the preparation of the bone marrow.
The Comet assay was performed under alkaline conditions according to the principles described by Singh et al. ([1988]) and Tice et al. ([2000]).
Liver and lung cells were obtained essentially as described by Hartmann et al. ([2004]) and by the Japanese Center for the Validation of Alternative Methods (JaCVAM [2009]). Single cells were obtained within 1 h after killing of the animals in order to minimize DNA damage during the preparation.
The organ parts (see above) were washed in mincing buffer (50 mM EDTA in HBSS [without Ca^2+ and Mg^2+] pH 7.5: DMSO 9:1 (v/v), the latter added shortly before use, stored at 4 °C), cut into 1 to 2-mm pieces in ice-cold mincing buffer and transferred to a cell sieve with 70-µm pores. The viability of the cell suspension was evaluated by the Trypan Blue Assay (Strober [2001]).
100 µL of the obtained cell suspension was mixed at 37 °C with 900 µL Low Melting Agarose (LMA) (0.7% agarose in phosphate-buffered saline [PBS] [Biochrom, Berlin, Germany] without Ca^2+ and Mg^2+). 100 µL of this mixture was transferred to a slide, which had been coated with Normal Melting Agarose (NMA) (0.6% agarose in PBS without Ca^2+ and Mg^2+). The slides were protected with a cover slip and the agarose was hardened at approximately 4 °C. The cover slips were then removed and the slides put over night at 4 °C into lysis buffer (2.5 M NaCl, 125 mM NaOH, 127 mM EDTA, 10 mM Tris/NaOH, pH 10; 1% Triton X-100 and 10% DMSO (v/v), the latter two added before use) in order to lyse the cell membrane, nuclear membrane and remove the histone.
The then following procedures were performed in a shaded room to minimize UV-mediated DNA damage during the procedures.
Remaining lysis buffer or FPG buffer was removed by immersing/washing the slides in PBS (without Ca^2+ and Mg^2+).
The slides were then placed into the electrophoresis chamber, which was cooled and protected from light. Slides were covered with electrophoresis buffer (0.3 M NaOH, 1 mM EDTA, pH > 13) carefully avoiding air bubbles. The DNA was allowed to unwind (20 min). Thereafter the electrophoresis was started (25 V, 300 mA, […], 30 min). The slides were then washed (2 times 5 min) in neutralization buffer (0.4 M Tris/HCl, pH 7.5), dehydrated and fixed in 100% ethanol (1 min), dried at room temperature overnight and stored at room temperature protected from dust.
Quantitative evaluation of the Comet assays was performed by fluorescence microscopy after DNA staining with ethidium bromide.

SMILES: C=CN1CCCC1=O [NVP, N-vinylpyrrolidone]
- viability at 5 days ([1]; female, 10 ppm, female, no FPG, 10 ppm inhalation, individual animals, read-out: Individual viability (%)): 98%
- viability at 5 days ([1]; female, 10 ppm, female, no FPG, 10 ppm inhalation, read-out: Viability (%) (mean ± SD)): 98 ± 1%
- viability at 5 days ([1]; female, 20 ppm, female, Comet with FPG (Table 11), 20 ppm inhalation, individual animals, read-out: Individual viability (%)): 98%
- viability at 5 days ([1]; female, 20 ppm, female, Comet with FPG (Table 11), 20 ppm inhalation, read-out: Viability (%) (mean ± SD)): 98 ± 1%
- viability at 5 days ([1]; female, 20 ppm, female, no FPG, 20 ppm inhalation, individual animals, read-out: Individual viability (%)): 98%
- viability at 5 days ([1]; female, 20 ppm, female, no FPG, 20 ppm inhalation, read-out: Viability (%) (mean ± SD)): 98 ± 1%
- viability at 5 days ([1]; male, 5 ppm, male, Comet with FPG (Table 10), 5 ppm inhalation, individual animals, read-out: Individual viability (%)): 97%
- viability at 5 days ([1]; male, 5 ppm, male, Comet with FPG (Table 10), 5 ppm inhalation, read-out: Viability (%) (mean ± SD)): 98 ± 1%
- viability at 5 days ([1]; male, 5 ppm, male, no FPG, 5 ppm inhalation, individual animals, read-out: Individual viability (%)): 97%
- viability at 5 days ([1]; male, 5 ppm, male, no FPG, 5 ppm inhalation, read-out: Viability (%) (mean ± SD)): 98 ± 1%
- viability at 5 days ([1]; male, 10 ppm, male, Comet with FPG (Table 10), 10 ppm inhalation, individual animals, read-out: Individual viability (%)): 99%
- viability at 5 days ([1]; male, 10 ppm, male, Comet with FPG (Table 10), 10 ppm inhalation, read-out: Viability (%) (mean ± SD)): 98 ± 2%
- viability at 5 days ([1]; male, 10 ppm, male, no FPG, 10 ppm inhalation, individual animals, read-out: Individual viability (%)): 99%
- viability at 5 days ([1]; male, 10 ppm, male, no FPG, 10 ppm inhalation, read-out: Viability (%) (mean ± SD)): 98 ± 2%
- viability at 5 days ([1]; male, 20 ppm, male, Comet with FPG (Table 10), 20 ppm inhalation, individual animals, read-out: Individual viability (%)): 100%
- viability at 5 days ([1]; male, 20 ppm, male, Comet with FPG (Table 10), 20 ppm inhalation, read-out: Viability (%) (mean ± SD)): 99 ± 1%
- viability at 5 days ([1]; male, 20 ppm, male, no FPG, 20 ppm inhalation, individual animals, read-out: Individual viability (%)): 100%
- viability at 5 days ([1]; male, 20 ppm, male, no FPG, 20 ppm inhalation, read-out: Viability (%) (mean ± SD)): 99 ± 1%
- Sex-linked recessive lethal test result [2]: negative
- Lipid-staining (oil red O) of centrilobular hepatocellular fatty change [3]: positive for only one male and one female animal
- Hedgehogs ([4]; NVP-treated liver cells, with or without FPG): 1–5%
- Hedgehogs/100 cells (mean ± SD) ([4]; female, 5 ppm inhalation): 3 ± 3 /100 cells
- TI (%) (mean ± SD) ([4]; female, 5 ppm inhalation): 1.0 ± 0.40%
- TI (%), mean of medians from 2 slides ([4]; female, 5 ppm inhalation): 0.9% and 1.1% and 1.7% and 0.8% and 0.6%
- Hedgehogs/100 cells (mean ± SD) ([4]; female, 10 ppm inhalation): 4 ± 4 /100 cells
- TI (%) (mean ± SD) ([4]; female, 10 ppm inhalation): 0.9 ± 0.48%
- TI (%), mean of medians from 2 slides ([4]; female, 10 ppm inhalation): 1.3% and 0.6% and 0.5% and 1.4% and 0.3%
- Hedgehogs/100 cells (mean ± SD) ([4]; female, 20 ppm inhalation): 3 ± 2 /100 cells
- TI (%) (mean ± SD) ([4]; female, 20 ppm inhalation): 0.7 ± 0.34%
- Hedgehogs/100 cells (mean ± SD) ([4]; male, 5 ppm inhalation): 3 ± 2 /100 cells
- TI (%) (mean ± SD) ([4]; male, 5 ppm inhalation): 0.9 ± 0.22%
- TI (%), mean of medians from 2 slides ([4]; male, 5 ppm inhalation): 1.2% and 0.9% and 0.6% and 0.7% and 1.1%
- Hedgehogs/100 cells (mean ± SD) ([4]; male, 10 ppm inhalation): 3 ± 1 /100 cells
- TI (%) (mean ± SD) ([4]; male, 10 ppm inhalation): 1.0 ± 0.68%
- TI (%), mean of medians from 2 slides ([4]; male, 10 ppm inhalation): 0.7% and 2.4% and 1.0% and 0.6%
- Hedgehogs/100 cells (mean ± SD) ([4]; male, 20 ppm inhalation): 3 ± 1 /100 cells
- TI (%) (mean ± SD) ([4]; male, 20 ppm inhalation): 0.7 ± 0.34%
- TI (%), mean of medians from 2 slides ([4]; male, 20 ppm inhalation): 1.2% and 0.8% and 0.5% and 1.0% and 0.3%
